pIC50: −log10 of the molar value.

Chain of Plasminogen activator inhibitor 1 (P05121 whole entry): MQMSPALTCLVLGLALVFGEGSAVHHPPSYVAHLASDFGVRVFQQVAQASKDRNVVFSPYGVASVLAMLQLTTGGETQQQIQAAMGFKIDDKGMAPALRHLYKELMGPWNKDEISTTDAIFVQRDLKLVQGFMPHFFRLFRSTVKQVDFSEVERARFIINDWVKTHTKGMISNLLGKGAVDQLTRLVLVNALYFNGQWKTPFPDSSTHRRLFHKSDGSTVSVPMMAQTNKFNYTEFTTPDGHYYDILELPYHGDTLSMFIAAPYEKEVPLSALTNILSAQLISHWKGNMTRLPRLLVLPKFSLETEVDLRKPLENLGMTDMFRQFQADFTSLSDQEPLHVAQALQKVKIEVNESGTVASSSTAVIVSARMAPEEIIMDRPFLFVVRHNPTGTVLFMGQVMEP

The experiment concerns the target Plasminogen activator inhibitor 1 (Homo sapiens, UniProt P05121). As to the kind of experiment: Inhibitory concentration required against Plasminogen activator inhibitor 1.
Compound `Oc1nc(-c2ccc(Cl)cc2)c(O)c2ccccc12` had a pIC50 of 4.63. `O=C(Nc1ccc(/C=C2\NC(=O)c3ccccc3C2=O)cc1)c1ccccc1` showed a pIC50 of 5.07. Next, `O=C(Nc1ccc(/C=C2\NC(=O)c3ccccc3C2=O)cc1)c1ccco1`: 5.72. `O=c1[nH]c(-c2ccc(F)cc2)c(O)c2ccccc12` had a pIC50 of 4.40. `O=c1[nH]/c(=C\c2ccc(OCCCc3cccnc3)cn2)c(=O)[nH]/c1=C\c1ccccc1` had a pIC50 of under 4.30.

`O=c1[nH]/c(=C\c2ccc(OCCCc3cccnc3)cc2)c(=O)[nH]/c1=C\c1ccccc1` gave a pIC50 of 6.00. In turn, `O=C1N/C(=C\c2ccc(OCCCc3cccnc3)cc2)C(=O)c2ccccc21` showed a pIC50 of 4.74.

For `O=C(Nc1ccc(Cl)c(Cl)c1)c1nc(O)c2ccccc2c1O`, the pIC50 is 4.85.

`Cn1c(=O)/c(=C/c2ccc(OCCCc3cccnc3)cc2)[nH]c(=O)/c1=C/c1ccccc1` gave a pIC50 of 4.92. For `Oc1nc(-c2ccccc2)c(O)c2ccccc12`, the pIC50 was 4.30. The compound `O=c1[nH]/c(=C\c2nccs2)c(=O)[nH]/c1=C\c1ccc(OCCCc2cccnc2)cc1` showed a pIC50 of 6.22.

`O=c1[nH]/c(=C\c2ccccn2)c(=O)[nH]/c1=C\c1ccc(OCCCc2cccnc2)cc1` gave a pIC50 of 6.52. With `O=C(Nc1cc(C(F)(F)F)cc(C(F)(F)F)c1)c1nc(O)c2ccccc2c1O`, the pIC50 was 4.86. Next, `O=C(Nc1ccc(Oc2ccc(OC(F)(F)F)cc2)cc1)c1[nH]c(=O)c2ccccc2c1O`: 6.00; `O=C(Nc1ccc(/C=C2\NC(=O)c3ccccc3C2=O)cc1)c1cccs1`: 5.40. `O=C(Nc1ccc(Cl)cc1)c1nc(O)c2ccccc2c1O` had a pIC50 of 4.62. For the compound `COc1cccc(-c2[nH]c(=O)c3ccccc3c2O)c1`, the pIC50 was 5.01.
